Measured values reported in patent publication US8222218B2, “Cyclopropanated carbohydrates” (Seton Hall University, priority 2008, dated 2012).
Like-named read-outs stand apart in the source and are kept apart here.

Columns and labels:
[1] = test system: MES-induced seizures; experiment: Maximal Electroshock Seizure (MES) test, mice; type: in vivo; settings: Mus musculus, ip, mice, i.p.
Procedure, shortened: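 Seizures were induced by a 60 Hz corneal current for 2 s (50 mA in CF1 mice, 150 mA in Sprague-Dawley rats). Mice received 30, 100 or 300 mg/kg i.p. in 0.5% methylcellulose and were tested at several intervals; rats received 30 mg/kg p.o. Protection means abolition of hind-limb tonic extension.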

[2] = test system: metrazole-induced clonic seizures; experiment: Subcutaneous Metrazole Seizure Threshold Test (scMET), rats; type: in vivo; settings: rat, row printed as 300, 0.4 h
[3] = Acute toxicity, minimal motor impairment (ataxia), rats; type: in vivo; settings: rat, 30 mg/kg
Experimental: (§1) Toxicity was measured using the minimal motor impairment test described below.
Animals are monitored for overt signs of impaired neurological or muscular function to assess a compound's toxicity. In mice, the rotorod procedure is used to disclose minimal muscular or neurological impairment. When a mouse is placed on a rotating rod (6 rpm), the animal can maintain its equilibrium for long periods of time. The animal is considered toxic if it falls off the rotating rod three times during a 1 minute period. In rats, minimal motor deficit is indicated by ataxia, which is manifested by an abnormal, uncoordinated gait. Rats used for toxicity evaluation are examined before the test drug is given as individual animals may have peculiarities in gait, equilibrium, and pacing response which must be distinguished from potential effects of the test substance.
Male and female albino CF1 mice (18-25 g, Charles River, Portage, Mich.) and male albino Sprague-Dawley rats (275-300 g, kindling test; 100-150 g all other tests; Charles River, Raleigh, N.C.) were used as experimental animals.

[4] = target: T1, cloned, human D1 receptor (Homo sapiens, UniProt P21728); experiment: Radioligand competition binding assay, [3H]SCH23390
T1 construct: expressed in transfected cells
T1 sequence (P21728 whole entry): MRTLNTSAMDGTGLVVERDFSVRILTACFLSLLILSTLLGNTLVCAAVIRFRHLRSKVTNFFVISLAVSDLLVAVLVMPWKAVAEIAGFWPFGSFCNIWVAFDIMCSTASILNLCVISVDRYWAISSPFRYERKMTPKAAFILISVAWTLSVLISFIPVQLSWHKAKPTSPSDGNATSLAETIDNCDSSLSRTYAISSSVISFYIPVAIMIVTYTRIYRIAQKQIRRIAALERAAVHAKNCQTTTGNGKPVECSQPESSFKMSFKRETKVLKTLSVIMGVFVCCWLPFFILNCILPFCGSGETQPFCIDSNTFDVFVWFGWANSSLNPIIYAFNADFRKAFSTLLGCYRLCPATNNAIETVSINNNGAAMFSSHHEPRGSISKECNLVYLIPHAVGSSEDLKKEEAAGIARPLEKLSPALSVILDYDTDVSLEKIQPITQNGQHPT
Text: Receptor binding profiles were provided by the National Institute of Mental Health's Psychoactive Drug Screening Program, Contract # N01 MH32004 (NIMH PDSP) The NIMH PDSP is directed by Bryan L. Roth M. D., Ph.D. at the University of North Carolina at Chapel Hill and Project Officer Jamie Driscol at NIMH, Bethesda Md., USA. Protocols for receptor-based assays by the PDSP may be found on the website: http://pdsp.med.unc.edu/pdspw/binding.php and http://pdsp.med.unc.edu/pdspw/function.php (Apr. 30, 2008).
Radioligand competition binding assays were performed as previously described (Rothman, R. B., Baumann, M. H., Savage, J. E., Rauser, L., McBride, Hufeisen, S. J., Roth B. L. Circulation (2000) 102:2836-2841) for Compounds 7 and 16. Briefly, test compounds were dissolved to 10 mM in 100% DMSO, then diluted to the desired concentrations (spanning seven orders of magnitude) in Dopamine Binding Buffer (50 mM NaCl, 50 mM HEPES, 5 mM MgCl2, 0.5 mM EDTA, pH 7.4). Diluted test and reference compounds were added to wells containing radioligand ([^3H]SCH23390, 0.3 nM final concentration) and buffer, then membrane fractions from cells stably expressing cloned, human D1 or D5 receptors were added and binding was allowed to equilibrate at room temperature for 1.5 hours. At equilibrium, reactions were filtered (using a FilterMate 96-well harvester, PerkinElmer) onto GF-A glass fiber filters (Wallac) and allowed to dry. Meltilex scintillant (Wallac) was melted onto the dry filters, and then allowed to cool. Filters were then sealed in plastic bags and counted on a Wallac TriLux microbeta counter.
Raw data (dpm) representing total radioligand binding (i.e., specific+non-specific binding) were plotted as a function of the logarithm of the molar concentration of the competitor (i.e., test or reference compound). Non-linear regression of the normalized (i.e., percent radioligand binding compared to that observed in the absence of test or reference compound) raw data is performed in Prism 4.0 (GraphPad Software) using the built-in three parameter logistic model describing ligand competition binding to radioligand-labeled sites: y=bottom+[(top−bottom)/(1+10^x−logIC50)] where bottom equals the residual radioligand binding measured in the presence of 10 μM reference compound (i.e., non-specific binding) and top equals the total radioligand binding observed in the absence of competitor. The log IC50 (i.e., the log of the ligand concentration that reduces radioligand binding by 50%) is thus estimated from the data and used to obtain the Ki by applying the Cheng-Prusoff approximation: Ki=IC50/(1+[ligand]/KD) where [ligand] equals the assay radioligand concentration and KD equals the affinity constant of the radioligand for the target receptor.

[5] = test system: seizures; experiment: In vivo anticonvulsant screening (MES, scMET, minimal clonic seizure), summary in words; design: species or system rat, mouse; settings: summary of Table 2
Experimental: as §1
The MES test is a model for generalized tonic-clonic seizures. The seizures are highly reproducible and electrophysiologically consistent with human seizures. The test provides information about a compound's ability to prevent the spread of seizure when all neuronal circuits of the brain are maximally active. 60 Hz of alternating current (50 mA in mice, 150 mA in rats) is applied for 2 seconds via corneal electrodes that have been treated with an electrolyte solution containing an anesthetic (0.5% tetracaine HCl). Mice are tested at a variety of intervals after an i.p. injection of […] solution of the test compound (commonly in a 0.5% solution of methylcellulose) at 30, 100, and 300 mg/kg doses. Rats are examined after a 30 mg/kg (per os, p.o.) dose that is applied in a volume of 0.04 mL/g. An animal is considered “protected” from MES-induced seizures upon removal of the hind limb extensor component of the seizure.
The subcutaneous injection of metrazole, which is a convulsant, produces clonic seizures in laboratory animals. The scMET test is designed to identify compounds that raise the seizure threshold of an animal. Mice are pretreated with test compound at 30, 100, and 300 mg/kg doses in a similar manner to the MES test. Rats are treated with a 50 mg/kg dose (p.o.). At the previously determined TPE of the test compound, the dose of metrazole that will induce convulsions in 97% of animals (CD97: 85 mg/kg mice) is injected into the loose fold of the skin in the midline of the neck. The animals are placed in isolation cages to minimize stress and observed for the next 30 minutes for the presence or absence of seizures. An episode of clonic spasms (approximately 3-5 seconds) of the fore and/or hindlimbs, jaws or vibrissae is taken as the endpoint.
The minimal clonic seizure (6 Hz) test, like the MES test, is used to assess a compound's ability to protect against electrically-induced seizures. The minimal clonic (6 Hz) seizure test uses a lower frequency (6 Hz) and a longer duration of stimulation (3 seconds) than the MES test. Test compounds are pre-administered to mice via i.p. injection. At varying times, individual mice (four per time point) are challenged with sufficient current via corneal electrodes to elicit a psychomotor seizure in 97% of animals (32 mA for 3 second). Untreated mice will display seizure characterized by a minimal clonic phase followed by stereotyped, automatistic behaviors described originally as being similar to the aura of human patients with partial seizures. Animals not displaying this behavior are considered to be protected.

Structure (SMILES): CCOC(=O)C1[C@@H]2[C@@H](O)[C@@H]3O[C@H](c4ccc(OC)cc4)OC[C@H]3O[C@H]12 (stereo partly drawn) [Compound 16, ethyl (2R,4aR,5aS,6aR,7R,7aS)-7-hydroxy-2-(4-methoxyphenyl)hexahydro-4H-cyclopropa[5,6]pyrano[3,2-d][1,3]dioxine-6-carboxylate]
- responders at 30 mg/kg ([1]; 0.5 h, read-out: MES 30 0.5 h (animals protected/tested)): 0%
- responders at 30 mg/kg ([1]; 4 h, read-out: MES 30 4 h (animals protected/tested)): 0%
- responders at 100 mg/kg ([1]; 0.5 h, read-out: MES 100 0.5 h (animals protected/tested)): 0%
- responders at 100 mg/kg ([1]; 4 h, read-out: MES 100 4 h (animals protected/tested)): 0%
- responders at 300 mg/kg ([1]; 0.5 h, read-out: MES 300 0.5 h (animals protected/tested)): 0%
- responders at 300 mg/kg ([1]; 4 h, read-out: MES 300 4 h (animals protected/tested)): 0%
- scMET 300 0.4 h (animals protected/tested) [2]: 0/4
- TOX 30 4 h (animals toxic/tested) [3]: 0/4
- Ki ([4]; D1 dopamine receptor, [3H]SCH23390 0.3 nM, Cheng-Prusoff): 4.74 µM
- inhibition of the D1 dopamine receptor ([4]; radioligand competition binding): significant inhibition
- anticonvulsant activity [5]: anticonvulsant activity
